Five compounds from ChEMBL document CHEMBL1201862, “PubChem BioAssay data set” (2004) can be followed below.

The term EC50 denotes the concentration needed to bring the measured effect to its halfway point. For orientation: IC50 means the point on the concentration scale where inhibition reaches its midpoint. As a reminder, the CC50 is the concentration giving 50% cytotoxicity.

Molecules are shown by their SMILES. Active and inactive are the calls of the source.

In assay [1] the target is T1, Alkaline phosphatase, tissue-nonspecific isozyme (Homo sapiens, UniProt P05186).
T1 sequence (P05186 whole entry): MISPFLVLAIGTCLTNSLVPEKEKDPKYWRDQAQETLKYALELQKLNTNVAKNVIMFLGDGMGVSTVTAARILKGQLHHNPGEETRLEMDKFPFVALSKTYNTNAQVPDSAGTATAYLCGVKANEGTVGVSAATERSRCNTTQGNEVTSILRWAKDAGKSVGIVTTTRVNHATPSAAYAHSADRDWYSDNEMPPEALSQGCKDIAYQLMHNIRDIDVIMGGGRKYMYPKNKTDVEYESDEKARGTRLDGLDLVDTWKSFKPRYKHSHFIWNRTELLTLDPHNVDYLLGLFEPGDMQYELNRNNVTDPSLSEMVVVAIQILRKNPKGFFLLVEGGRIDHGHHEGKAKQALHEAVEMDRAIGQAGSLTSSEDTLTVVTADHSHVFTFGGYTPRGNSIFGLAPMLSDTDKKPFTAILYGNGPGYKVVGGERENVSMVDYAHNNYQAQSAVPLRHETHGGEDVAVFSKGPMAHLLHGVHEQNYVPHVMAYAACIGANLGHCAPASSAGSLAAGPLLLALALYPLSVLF

Assay [2] can be described thus: enhancers of respiration in Yfh1-depleted yeast, dose response, Friedreich's ataxia, plus single-dose screen (AID 1465).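 Note: yeast depleted of Yfh1p frataxin homolog grown on glycerol needing respiration; WST-1 tetrazolium dye reduction as measure of cellular dehydrogenase metabolic activity.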 Format: functional.
A short description of assay [3]: Counterscreen for IDE inhibitors: Luminescence-based cell-based high throughput dose response assay to identify compounds that are cytotoxic to HEK cells. [Related pubchem assays: 434962 (Primary screen (IDE inhibitors in singlicate)), 449730 (Counterscreen (Cytotoxicity in triplicate)), 435028 (Confirmation (IDE inhibitors in triplicate)) …. Type of assay: functional. The following applies: HEK293.

The next assay deals with T2, Insulin-degrading enzyme (Homo sapiens, UniProt P14735).
T2 sequence (P14735 whole entry): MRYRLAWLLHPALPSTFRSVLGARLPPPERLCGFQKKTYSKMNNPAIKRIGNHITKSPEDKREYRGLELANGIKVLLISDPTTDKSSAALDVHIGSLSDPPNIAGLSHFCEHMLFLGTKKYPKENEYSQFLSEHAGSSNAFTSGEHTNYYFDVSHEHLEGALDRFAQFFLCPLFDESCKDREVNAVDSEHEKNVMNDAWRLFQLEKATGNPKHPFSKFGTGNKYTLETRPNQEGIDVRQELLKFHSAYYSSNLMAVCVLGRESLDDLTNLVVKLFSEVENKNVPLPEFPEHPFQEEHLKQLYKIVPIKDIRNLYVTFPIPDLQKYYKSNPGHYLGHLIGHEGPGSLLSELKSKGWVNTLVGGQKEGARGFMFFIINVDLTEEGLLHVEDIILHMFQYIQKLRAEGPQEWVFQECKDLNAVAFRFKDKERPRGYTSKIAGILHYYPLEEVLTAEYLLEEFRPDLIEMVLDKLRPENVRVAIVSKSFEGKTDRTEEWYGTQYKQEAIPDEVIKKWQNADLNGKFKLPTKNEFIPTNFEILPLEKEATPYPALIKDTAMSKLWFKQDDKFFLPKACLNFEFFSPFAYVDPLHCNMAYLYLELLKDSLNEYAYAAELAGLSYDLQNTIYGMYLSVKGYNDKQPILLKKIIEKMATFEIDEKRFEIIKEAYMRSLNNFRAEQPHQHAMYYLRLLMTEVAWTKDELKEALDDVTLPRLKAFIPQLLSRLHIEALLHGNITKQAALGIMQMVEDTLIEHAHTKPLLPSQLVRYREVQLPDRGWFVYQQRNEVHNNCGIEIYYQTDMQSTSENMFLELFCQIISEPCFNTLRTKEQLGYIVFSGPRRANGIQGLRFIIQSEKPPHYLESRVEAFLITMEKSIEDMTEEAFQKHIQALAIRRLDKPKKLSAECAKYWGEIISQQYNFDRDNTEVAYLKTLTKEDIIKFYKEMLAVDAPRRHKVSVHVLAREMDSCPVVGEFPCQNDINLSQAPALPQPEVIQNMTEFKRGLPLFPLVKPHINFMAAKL
Briefly: Dose Response: Fluorescence polarization-based cell-based high throughput dose response assay for inhibitors of insulin-degrading enzyme (IDE). [Related pubchem assays: 434962 (Primary screen (IDE inhibitors in singlicate)), 449730 (Counterscreen (Cytotoxicity in triplicate)), 435028 (Confirmation (IDE inhibitors in triplicate)), 434984 (Summary …. Format: functional.

The nature of assay [4]: HEp-2 cell cytotoxicity, dose response, cytotoxicity control for RSV inhibitor project, HTS (AID 2410). Type of assay: functional. The following applies: human respiratory syncytial virus.
Assay [5] can be described thus: M. tuberculosis H37Rv growth inhibitors, H37Rv strain (AID 1626). Format: functional.
Assay [6] has as its target T3, Heat shock factor protein 1 (Mus musculus, UniProt P38532).
T3 sequence (P38532 whole entry): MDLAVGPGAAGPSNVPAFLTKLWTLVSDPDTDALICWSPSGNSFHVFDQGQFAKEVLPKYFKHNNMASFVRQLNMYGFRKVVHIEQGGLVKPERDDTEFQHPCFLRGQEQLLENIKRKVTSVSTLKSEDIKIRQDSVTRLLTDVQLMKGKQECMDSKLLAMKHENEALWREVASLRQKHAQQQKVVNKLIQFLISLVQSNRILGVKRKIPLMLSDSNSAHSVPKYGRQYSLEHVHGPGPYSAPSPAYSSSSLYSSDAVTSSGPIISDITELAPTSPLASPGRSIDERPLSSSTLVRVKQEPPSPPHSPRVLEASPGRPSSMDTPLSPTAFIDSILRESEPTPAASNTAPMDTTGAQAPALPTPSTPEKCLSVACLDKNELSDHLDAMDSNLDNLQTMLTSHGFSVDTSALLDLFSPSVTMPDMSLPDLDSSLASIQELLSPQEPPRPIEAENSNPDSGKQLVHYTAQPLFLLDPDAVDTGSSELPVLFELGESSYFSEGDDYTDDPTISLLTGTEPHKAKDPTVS
In words: HSF1 potentiators in luciferase reporter cells, confirmation, cell-based, NIH3T3, luminescence, dose retest (AID 435004).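 Note: stress induced by proteasome inhibitor MG132 added 30 min after compound; luciferase reporter driven by HSF1 response element in NIH3T3 cells; actives raise luminescence as potentiators of the MG132 stress response.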 Format: functional. Background: Reporter assays use an easily measured gene product as a stand-in for the process of interest.

Assay [7] has as its target T4, Serine/threonine-protein phosphatase (Homo sapiens, UniProt Q9BPW0).
T4 sequence (Q9BPW0 whole entry): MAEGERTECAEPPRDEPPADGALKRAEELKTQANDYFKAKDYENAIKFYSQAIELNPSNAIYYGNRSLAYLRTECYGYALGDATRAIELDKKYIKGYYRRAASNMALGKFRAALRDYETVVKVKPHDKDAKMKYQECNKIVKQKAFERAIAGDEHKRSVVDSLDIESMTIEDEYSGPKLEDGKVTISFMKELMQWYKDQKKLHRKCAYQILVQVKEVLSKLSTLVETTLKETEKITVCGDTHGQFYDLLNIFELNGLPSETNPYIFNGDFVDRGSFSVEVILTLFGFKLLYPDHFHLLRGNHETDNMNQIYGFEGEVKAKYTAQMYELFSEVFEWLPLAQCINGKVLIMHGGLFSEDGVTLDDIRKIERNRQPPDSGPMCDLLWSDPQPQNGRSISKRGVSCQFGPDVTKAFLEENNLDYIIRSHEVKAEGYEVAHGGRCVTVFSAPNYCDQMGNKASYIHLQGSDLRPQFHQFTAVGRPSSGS
In words: Counterscreen for inhibitors of PP1: fluorescence-based biochemical high throughput dose response assay to identify inhibitors of Protein Phosphatase 5 (PP5). [Related pubchem assays: 2034 (Summary (PP5 inhibitors)), 1987 (PP5 inhibitors in singlate), 2235 (PP1 inhibitors in singlate)].

Assay [8] concerns the target Serine/threonine-protein phosphatase PP1-alpha catalytic subunit (Homo sapiens, UniProt P62136). In words: PP1 phosphatase inhibitors, dose response, biochemical, fluorescence (AID 2403).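 Note: phosphatase turnover of OMFP into fluorescent 3-O-methylfluorescein.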
In another assay the test system is Streptococcus. Briefly: Group A Streptococcus viability loss, dose response, counter-screen for streptokinase expression inhibitor project, luminescence, BacTiterGlo (AID 1915).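 Note: potency for reduction of bacterial viability or growth.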 Format: functional, organism-based. A general note: Counterscreens check selectivity or assay interference.
A short description of assay [9]: C. albicans growth with fluconazole, confirmation, fluorescence, retest (AID 2467). Format: functional, cell-based.
Assay [10] deals with Potassium voltage-gated channel subfamily KQT member 2 (Rattus norvegicus, UniProt O88943, W236L). Briefly: KCNQ2 channel potentiators, dose response, mechanism study for KCNQ2 potentiator project, cell-based, automated electrophysiology (AID 2603). Format: functional.
Assay [11] can be described thus: NIH-3T3 fibroblast cytotoxicity, dose response, cytotoxicity control, cell-based, fluorescence, Alamar Blue, secondary assay (AID 2327).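 Note: NIH-3T3 mouse fibroblasts cultured with fluconazole at 8 µg/mL.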 Type of assay: functional. Background: Resazurin is reduced to fluorescent resorufin, in cell work by metabolically active cells.
Assay [12] relates to Streptococcus sp. 'group A'. Briefly: growth inhibition of control SK(-) GAS strain, dose response, counter-screen for streptokinase expression inhibitor project, luminescence, kanamycin, BacTiterGlo, confirmation (AID 1900). Format: functional, organism-based.

Sequence of Serine/threonine-protein phosphatase PP1-alpha catalytic subunit (P62136 whole entry): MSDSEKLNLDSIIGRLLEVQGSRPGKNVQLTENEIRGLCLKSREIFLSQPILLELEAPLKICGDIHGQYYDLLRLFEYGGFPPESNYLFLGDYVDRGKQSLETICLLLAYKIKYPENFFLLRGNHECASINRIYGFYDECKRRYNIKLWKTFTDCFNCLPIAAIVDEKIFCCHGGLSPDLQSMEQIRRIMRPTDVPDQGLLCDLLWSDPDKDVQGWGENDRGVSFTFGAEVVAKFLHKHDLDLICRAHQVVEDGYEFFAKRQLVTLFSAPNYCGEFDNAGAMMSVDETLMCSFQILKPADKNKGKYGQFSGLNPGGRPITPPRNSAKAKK
Sequence of Potassium voltage-gated channel subfamily KQT member 2 (O88943 whole entry W236L): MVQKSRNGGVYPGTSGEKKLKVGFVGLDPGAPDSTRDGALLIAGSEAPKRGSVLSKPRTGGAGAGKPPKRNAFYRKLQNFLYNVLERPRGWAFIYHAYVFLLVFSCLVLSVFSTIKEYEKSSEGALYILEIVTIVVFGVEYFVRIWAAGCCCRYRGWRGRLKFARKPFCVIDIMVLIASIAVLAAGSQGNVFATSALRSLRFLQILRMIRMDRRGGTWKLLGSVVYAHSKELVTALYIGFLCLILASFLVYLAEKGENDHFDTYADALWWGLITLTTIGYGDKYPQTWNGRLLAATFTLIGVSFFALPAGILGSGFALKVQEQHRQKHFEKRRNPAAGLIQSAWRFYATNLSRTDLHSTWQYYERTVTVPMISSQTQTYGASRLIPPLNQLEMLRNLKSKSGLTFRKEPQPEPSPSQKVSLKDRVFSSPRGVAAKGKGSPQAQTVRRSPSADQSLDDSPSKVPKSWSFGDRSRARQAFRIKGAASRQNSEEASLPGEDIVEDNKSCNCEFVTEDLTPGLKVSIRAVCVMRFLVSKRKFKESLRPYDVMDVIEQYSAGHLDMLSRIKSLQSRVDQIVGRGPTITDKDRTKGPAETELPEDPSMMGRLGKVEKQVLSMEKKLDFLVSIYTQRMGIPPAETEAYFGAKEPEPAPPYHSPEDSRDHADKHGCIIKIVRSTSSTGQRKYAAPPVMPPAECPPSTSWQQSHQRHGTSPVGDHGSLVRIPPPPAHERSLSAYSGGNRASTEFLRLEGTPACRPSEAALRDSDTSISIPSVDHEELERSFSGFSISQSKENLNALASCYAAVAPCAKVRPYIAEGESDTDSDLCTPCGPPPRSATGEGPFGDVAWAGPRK

As to `Cc1ccc(C(O)(C(=O)NNC(=O)CN2CCN(C)CC2)c2ccc(C)cc2)cc1`, the EC50 in [1] is recorded as 64.1 µM (not active).
Regarding `O=C1NC(=O)N(c2ccc3c(c2)OCO3)C(=O)/C1=C/c1ccc(N2CCCC2)o1`, the EC50 in [2] is > 100 µM (active). Besides, the IC50 in [3] is on record as > 55.7 µM (not active); against Insulin-degrading enzyme, 20.7 µM (not active).
`Cc1cc(-c2ccc(/C=N/n3cnnc3)o2)ccc1Cl`: the CC50 in assay [4] is > 50 µM (active). Also, the IC50 in assay [5] was > 100 µM (active).
Consider `O=C(O)c1cc(-c2ccc(Cl)c(Cl)c2)n(-c2ccccc2)n1`, for which, in assay [6], the EC50 was > 260 µM (inactive). The IC50 in [7] was > 67 µM (not active); in assay [8], 5.82 µM (active).
Turning to `O=C(Cc1ccccc1)N/N=C/c1cc(Br)cc(Cl)c1O`, the EC50 with Streptococcus is 1.73 µM (active); in assay [9] it was 4.68 µM (active); in assay [10] it was 7.13 µM (active); in [11], > 150 µM (inactive); in assay [12], 1.05 µM (active).
